From the NIST ThermoML archive (doi:10.1016/j.jct.2018.09.037)
Where “and” joins values, the source holds several entries; their conditions need not be identical. Equal entries are not always repeated. Numbers after ± are expanded uncertainties.

Assay: xn = mol fraction of the nth substance listed
Conditions: 100 kPa, Liquid, Electromagnetic levitation / mass taken directly, volume taken from sample image

[Pd] [palladium] + [Fe]
Conditions | mass density
1414 K, x1 = 0.6 | 8979 ± 390 kg/m3
1437 K, x1 = 0.6 | 8950 ± 390 kg/m3
1440 K, x1 = 0.8 | 9717 ± 240 kg/m3
1476 K, x1 = 0.6 | 8899 ± 390 kg/m3
1483 K, x1 = 0.6 | 8904 ± 390 kg/m3
1483 K, x1 = 0.8 | 9676 ± 240 kg/m3
1500 K, x1 = 0.4 | 8297 ± 360 kg/m3
1512 K, x1 = 0.4 | 8275 ± 360 kg/m3
1536 K, x1 = 0.6 | 8856 ± 390 kg/m3
1543 K, x1 = 0.8 | 9619 ± 240 kg/m3
1551 K, x1 = 0.6 | 8825 ± 380 kg/m3
1562 K, x1 = 0.4 | 8208 ± 360 kg/m3
1590 K, x1 = 0.6 | 8791 ± 380 kg/m3
1598 K, x1 = 0.8 | 9769 ± 240 kg/m3
1613 K, x1 = 0.6 | 8779 ± 380 kg/m3
1613 K, x1 = 0.8 | 9499 ± 240 kg/m3
1624 K, x1 = 0.8 | 9547 ± 240 kg/m3
1625 K, x1 = 0.4 | 8150 ± 360 kg/m3
1625 K, x1 = 0.8 | 9735 ± 240 kg/m3
1630 K, x1 = 0.2 | 7824 ± 210 kg/m3
1633 K, x1 = 0.6 | 8756 ± 380 kg/m3
1651 K, x1 = 0.2 | 7615 ± 200 kg/m3
1663 K, x1 = 0.6 | 8735 ± 380 kg/m3
1665 K, x1 = 0.8 | 9694 ± 250 kg/m3
1667 K, x1 = 0.6 | 8709 ± 380 kg/m3
1668 K, x1 = 0.2 | 7805 ± 210 kg/m3
1672 K, x1 = 0.8 | 9450 ± 240 kg/m3
1681 K, x1 = 0.2 | 7789 ± 210 kg/m3 and 7591 ± 200 kg/m3
1707 K, x1 = 0.8 | 9656 ± 250 kg/m3
1711 K, x1 = 0.4 | 8076 ± 350 kg/m3
1713 K, x1 = 0.2 | 7775 ± 210 kg/m3
1715 K, x1 = 0.6 | 8695 ± 380 kg/m3
1721 K, x1 = 0.2 | 7550 ± 200 kg/m3
1725 K, x1 = 0.6 | 8660 ± 380 kg/m3
1742 K, x1 = 0.2 | 7739 ± 210 kg/m3
1749 K, x1 = 0.8 | 9379 ± 240 kg/m3
1767 K, x1 = 0.8 | 9602 ± 250 kg/m3
1772 K, x1 = 0.2 | 7506 ± 200 kg/m3
1789 K, x1 = 0.6 | 8633 ± 380 kg/m3
1790 K, x1 = 1 | 10670 ± 170 kg/m3
1795 K, x1 = 1 | 10672 ± 170 kg/m3
1796 K, x1 = 1 | 10652 ± 170 kg/m3
1802 K, x1 = 1 | 10686 ± 170 kg/m3
1809 K, x1 = 1 | 10670 ± 170 kg/m3
1820 K, x1 = 1 | 10677 ± 180 kg/m3
1829 K, x1 = 0.4 | 7971 ± 350 kg/m3
1831 K, x1 = 1 | 10627 ± 180 kg/m3
1832 K, x1 = 0.4 | 7965 ± 350 kg/m3
1832 K, x1 = 0.8 | 9536 ± 250 kg/m3
1838 K, x1 = 0.2 | 7700 ± 210 kg/m3
1841 K, x1 = 0.8 | 9278 ± 240 kg/m3
1843 K, x1 = 1 | 10654 ± 180 kg/m3
1856 K, x1 = 1 | 10601 ± 180 kg/m3
1864 K, x1 = 0.2 | 7646 ± 210 kg/m3
1872 K, x1 = 0.2 | 7426 ± 200 kg/m3
1878 K, x1 = 1 | 10558 ± 180 kg/m3
1879 K, x1 = 0.6 | 8530 ± 380 kg/m3
1889 K, x1 = 0.6 | 8544 ± 380 kg/m3
1889 K, x1 = 1 | 10592 ± 180 kg/m3
1890 K, x1 = 1 | 10575 ± 180 kg/m3
1916 K, x1 = 0.8 | 9434 ± 250 kg/m3
1917 K, x1 = 1 | 10529 ± 180 kg/m3
1935 K, x1 = 1 | 10478 ± 180 kg/m3
1951 K, x1 = 1 | 10465 ± 180 kg/m3
